Columns and labels:
[1] = test system: Morrison rat model eye with elevated intraocular pressure; assay: Morrison rat model for glaucoma, IOP by tonometer after topical application; format: in vivo
Text: The Intraocular Pressure (“IOP”) in a rat eye was lowered following treatment of the eye with about a 1% (w/v) phenanthroline solution. Briefly, the IOP was elevated in one eye for rats grouped as specified below by using the method as described by Morrison et al (1997). […] The other eyes was used as a control. Rats were housed post-surgically in constant low light (<90 lux) to minimize effects of circadian influences on IOP. Five rats were used per treatment group.
A solution of 1,7-phenanthroline was prepared by dissolving 10 mg of 1,7-phenanthroline in 32 μl methanol (100%) forming a concentrated 1,7-phenanthroline solution. About 3 μl of the concentrated 1,7-phenanthroline solution was then added to 96 μl of saline (0.9% NaCl) to form a working 1,7-phenanthroline solution. The working 1,7-phenanthroline solution was then used in the eye of the Morrison Model of Glaucoma. The average intraocular pressure (IOP) in Morrison model eye was 26.22 (average of nine readings) prior to application of the working 1,7-phenanthroline solution. In contrast, the IOP measured 6 hr after application of the working 1,7-phenanthroline solution dropped to 25.66, as shown in FIG. 6A.
(§1) A solution of 4,7-dihydroxy-1,10-phenanthroline was prepared by dissolving 7 mg of 4,7-dihydroxy-1,10-phenanthroline in 22 μl methanol, 30 μl 1 N NaOH, and 626 μl of saline (0.9% NaCl) forming a 4,7-dihydroxy-1,10-phenanthroline solution having a pH of about 10.42. […] The 4,7-dihydroxy-1,10-phenanthroline solution was centrifuged at 10,000×g for about 5 min to remove the precipitate. The clear supernatant was removed and used for testing the Morrison model eye. The average intraocular pressure (IOP) in the eye with elevated pressure was 27.77 (average of nine readings) prior to application of the drug.
(§2) A solution of 1,10-phenanthroline 5,6-dione was prepared by dissolving 7 mg of 1,10-phenanthroline 5,6-dione in 44 μl methanol, and 88 μl dimethylsulfoxide (DMSO). […] The 1,10-phenanthroline 5,6-dione solution with precipitate was centrifuged at 10,000×g for 5 min, and the clear supernatant was removed. 6 μl of the supernatant plus 97 μl of saline formed the working solution used in the Morison model of glaucoma. The average intraocular pressure (IOP) in eye with elevated pressure was 27.66 (average of nine readings) prior to application of the drug.

[2] = Solubility observed while preparing the test solution; format: physicochemical
Experimental: as §1, §2

[3] = test system: patients; conditions: patients treated with latanoprost; cited from earlier work
[4] = target: T1, thermolysin (Bacillus thermoproteolyticus, UniProt P00800); conditions: reversible inhibitor; cited from earlier work
T1 sequence (P00800 233-548): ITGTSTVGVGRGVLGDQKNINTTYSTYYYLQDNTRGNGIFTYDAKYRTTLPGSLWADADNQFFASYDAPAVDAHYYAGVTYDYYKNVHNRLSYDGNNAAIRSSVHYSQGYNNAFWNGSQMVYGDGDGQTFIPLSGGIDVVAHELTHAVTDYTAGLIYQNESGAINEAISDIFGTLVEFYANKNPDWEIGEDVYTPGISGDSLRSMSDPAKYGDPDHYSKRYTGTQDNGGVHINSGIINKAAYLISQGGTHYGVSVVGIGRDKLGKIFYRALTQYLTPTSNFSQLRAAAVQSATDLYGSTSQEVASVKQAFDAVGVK

c1cnc2c(c1)ccc1ncccc12 [1,7-phenanthroline]
IOP measured 6 hr after application (FIG. 6A) ([1]; working solution: 10 mg in 32 μl methanol, 3 μl added to 96 μl saline, average IOP 26.22 (nine readings) prior to application): 25.66

O=C1C(=O)c2cccnc2-c2ncccc21 [1,10-phenanthroline 5,6-dione]
IOP measured 6 hr after application (FIG. 6C) ([1]; 6 μl supernatant (7 mg in 44 μl methanol, 88 μl DMSO) plus 97 μl saline, average IOP 27.66 (nine readings) prior to application): 25.44 | solubility in methanol and DMSO ([2]; 7 mg in 44 μl methanol and 88 μl dimethylsulfoxide): the entire drug was not solubilized

Oc1ccnc2c1ccc1c(O)ccnc12 [4,7-dihydroxy-1,10-phenanthroline]
IOP measured 6 hr after application (FIG. 6B) ([1]; clear supernatant of 7 mg in 22 μl methanol, 30 μl 1 N NaOH, 626 μl saline, adjusted to pH 7.7, average IOP 27.77 (nine readings) prior to application): 26.22 | solubility on adjusting solution from pH about 10.42 to pH 7.7 ([2]; 7 mg in 22 μl methanol, 30 μl 1 N NaOH, 626 μl saline, 1N HCl): some precipitation of the drug

CC(C)OC(=O)CCC/C=C\C[C@@H]1[C@@H](CC[C@@H](O)CCc2ccccc2)[C@H](O)C[C@@H]1O [latanoprost, Latanoprost]
increased iris pigmentation, share of patients [3]: up to one in six

c1cnc2c(c1)ccc1cccnc12 [phenanthroline, 1,10-phenanthroline]
intraocular pressure (FIG. 4) ([1]; 1% (w/v) in saline, 20-25 μl topically once, 22 and 27 days following surgery, cohort 2-4-04, IOP measured after 1 hour and 6 hours): decreased | intraocular pressure (FIG. 5) ([1]; 1% phenanthroline, 27 days following surgery, ID#1-17-48 in cohort 2-4-04): decreased | Ki [4]: 40 µM

Reference: patent US20060111388A1, “Phenanthroline and derivatives thereof used to lower intraocular pressure in an affected eye” (University of North Texas Health Science Center at Fort …, priority 2004, published 2006)
